# Laboratory results published in patent publication US9120785B2, “Pyridyl aminopyridines as Syk inhibitors” (Merck Sharp & Dohme Corp., priority 2011, dated 2015).
# Molecular target: recombinant human GST-Syk (Homo sapiens (Human), UniProt P43405)
# Assay: Homogeneous Time-Resolved Fluorescence (HTRF) assay for the recombinant human Syk enzyme
# Assay type: biochemical
# Details: recombinant human GST-Syk 5 pM, ATP 25 μM; class symbols; read-out: rhSyk activity (IC50)
# Description: Homogeneous Time-Resolved Fluorescence (HTRF) Assay for the Recombinant Human Syk Enzyme:
# A recombinant GST-hSyk fusion protein was used to measure potency of compounds to inhibit human Syk activity. The recombinant human GST-Syk ([…] #08-176) (5 pM final concentration) was incubated with various concentrations of the inhibitor diluted in DMSO (0.1% final concentration) for 10 minutes at room temperature in 15 mM Tris-HCl (pH 7.5), 0.01% tween 20, 2 mM DTT in 384 well plate format. To initiate the reaction the biotinylated substrate peptide (250 nM final concentration) that contains the phosphorylation site for Syk was added with magnesium (5 mM final concentration) and ATP (25 μM final concentration). Final volume of the reaction was 10 μL. Phosphorylation of the peptide was allowed to proceed for 45 minutes at room temperature. To quench the reaction and detect the phosphorylated product, 2 nM of a Europium-anti-phosphotyrosine antibody (Perkin Elmer #AD0161) and 70 nM SA-APC (Perkin-Elmer #CR130-100) were added together in 15 mM Tris pH 7.5, 40 mM EDTA, 0.01% tween 20. Final volume of the quenching solution was 10 μL. The resulting HTRF signal was measured after 30 minutes on an EnVision (Perkin-Elmer) reader using a time-resolved fluorescence protocol.
row,SMILES,IC50 [nM]
1,"Cc1cc(Nc2cc(C(F)(F)F)ccn2)nc(-c2cnc(C(C)(O)C3CCC(C(=O)O)C(C)C3)s2)c1 (single isomer, unassigned) [Example 15-7, 4-{1-hydroxy-1-[5-(4-methyl-6-{[4-(trifluoromethyl)pyridin-2-yl]amino}pyridin-2-yl)-1,3-thiazol-2-yl]ethyl}-2-methylcyclohexanecarboxylic acid]",≤ 100
2,"Cc1cc(Nc2cc(C(F)(F)F)ccn2)nc(-c2cnc(C(C)(O)C3CCC(C(=O)O)C(C)C3)s2)c1 (single isomer, unassigned) [Example 15-8, 4-{1-hydroxy-1-[5-(4-methyl-6-{[4-(trifluoromethyl)pyridin-2-yl]amino}pyridin-2-yl)-1,3-thiazol-2-yl]ethyl}-2-methylcyclohexanecarboxylic acid]",≤ 100
3,"Cc1cc(Nc2cc(C(F)(F)F)ccn2)nc(-c2cnc(C(C)(O)C3CCC(C(=O)O)C(C)C3)s2)c1 (single isomer, unassigned) [Example 15-9, 4-{1-hydroxy-1-[5-(4-methyl-6-{[4-(trifluoromethyl)pyridin-2-yl]amino}pyridin-2-yl)-1,3-thiazol-2-yl]ethyl}-2-methylcyclohexanecarboxylic acid]",≤ 100
4,"Cc1cc(Nc2cc(C(F)(F)F)ccn2)nc(-c2cnc(C(C)(O)C3CCC(C(=O)O)C(C)C3)s2)c1 (single isomer, unassigned) [Example 15-10, 4-{1-hydroxy-1-[5-(4-methyl-6-{[4-(trifluoromethyl)pyridin-2-yl]amino}pyridin-2-yl)-1,3-thiazol-2-yl]ethyl}-2-methylcyclohexanecarboxylic acid]",≤ 100
5,"Cc1cc(Nc2cc(C(F)(F)F)ccn2)nc(-c2cnc(C(C)(O)C3CCC(C(=O)O)C(C)C3)s2)c1 (single isomer, unassigned) [Example 15-11, 4-{1-hydroxy-1-[5-(4-methyl-6-{[4-(trifluoromethyl)pyridin-2-yl]amino}pyridin-2-yl)-1,3-thiazol-2-yl]ethyl}-2-methylcyclohexanecarboxylic acid]",≤ 100

# Next, values leading:
row,IC50 [nM],SMILES
1,≤ 100,"Cc1cc(Nc2cc(C(F)(F)F)ccn2)nc(-c2cnc(C(C)(O)C3CCC(C(=O)O)C(C)C3)s2)c1 (single isomer, unassigned) [Example 15-2, 4-{1-hydroxy-1-[5-(4-methyl-6-{[4-(trifluoromethyl)pyridin-2-yl]amino}pyridin-2-yl)-1,3-thiazol-2-yl]ethyl}-2-methylcyclohexanecarboxylic acid]"
2,≤ 100,"Cc1cc(Nc2cc(C(F)(F)F)ccn2)nc(-c2cnc(C(C)(O)C3CCC(C(=O)O)C(C)C3)s2)c1 (single isomer, unassigned) [Example 15-3, 4-{1-hydroxy-1-[5-(4-methyl-6-{[4-(trifluoromethyl)pyridin-2-yl]amino}pyridin-2-yl)-1,3-thiazol-2-yl]ethyl}-2-methylcyclohexanecarboxylic acid]"
3,≤ 100,"Cc1cc(Nc2cc(C(F)(F)F)ccn2)nc(-c2cnc(C(C)(O)C3CCC(C(=O)O)C(C)C3)s2)c1 (single isomer, unassigned) [Example 15-4, 4-{1-hydroxy-1-[5-(4-methyl-6-{[4-(trifluoromethyl)pyridin-2-yl]amino}pyridin-2-yl)-1,3-thiazol-2-yl]ethyl}-2-methylcyclohexanecarboxylic acid]"
4,≤ 100,"Cc1cc(Nc2cc(C(F)(F)F)ccn2)nc(-c2cnc(C(C)(O)C3CCC(C(=O)O)C(C)C3)s2)c1 (single isomer, unassigned) [Example 15-5, 4-{1-hydroxy-1-[5-(4-methyl-6-{[4-(trifluoromethyl)pyridin-2-yl]amino}pyridin-2-yl)-1,3-thiazol-2-yl]ethyl}-2-methylcyclohexanecarboxylic acid]"
5,≤ 100,"Cc1cc(Nc2cc(C(F)(F)F)ccn2)nc(-c2cnc(C(C)(O)C3CCC(C(=O)O)C(C)C3)s2)c1 (single isomer, unassigned) [Example 15-6, 4-{1-hydroxy-1-[5-(4-methyl-6-{[4-(trifluoromethyl)pyridin-2-yl]amino}pyridin-2-yl)-1,3-thiazol-2-yl]ethyl}-2-methylcyclohexanecarboxylic acid]"
